# From US20250114324A1, “ANTIMICROBIAL MATERIALS AND NANOPARTICLES AND METHODS OF USE THEREOF” (Arizona Board of Regents on behalf of Arizona State …, priority 2022, published 2025)
# Read-outs that look alike come from different tables or passages of the source.
# Columns and labels:
# [1] = Stability of nano-encapsulated and native EGCG in 1×PBS at pH 7.4; assay type: physicochemical; details: neutral pH (7.4)
# Experimental: Three independent experiments were conducted at each time point.
# The degradation rate of EGCG in NLCs and CSNLCs were much slower.
# (§1) The chemical stability is measured by detecting remaining phytochemicals' concentrations at different time points using the HPLC system. The release profile is measured using a dialysis method. Briefly, native phytochemicals and NCs are each put into dialysis bags with Molecular Weight Cut Off (MWCO) 6,000-8,000. The dialysis bags are dipped into the dissolution medium composed of 1×PBS and methanol (9:1, v:v). The dissolution medium is stirred at 200 rpm at 4° C. and 22° C. The dissolution medium is changed completely every 2 hours for the first 24 hours, and every 6 hours for the rest 30 days. The amounts of phytochemicals in the release medium are measured using the above HPLC methods.
# [2] = after drinking tea containing catechins at 10 mg/kg body weight; cited from earlier work
# [3] = after drinking 2 cups of green tea; cited from earlier work
# [4] = Pharmacokinetics and bioavailability of Q after oral administration to rats; details: male, Sprague-Dawley, rat, 50 mg/kg
# Experimental: Male Sprague-Dawley rats (n=3 per group) weighing 200-250 g were purchased pre-cannulated from Harlan Laboratories (Indianapolis, IN). The rounded tips catheters were surgically implanted into the jugular vein of the rats with the benefits of multiple blood draw. […] Blood was collected via the catheters at hour 0, 1, 2, 3, 4, 6, 8, 10, 14, 24, 36, and 48 into heparinized tubes. Blood Q concentrations were measured using a HPLC system (FIG. 5). Pharmacokinetic parameters were determined on each individual set of data by using a non-compartmental model (Song I, Eur J Clin Pharmacol. 2016; 72:665-670). […] The relative bioavailability Fr at infinity was calculated as Fr=AUCQ-NLC, […]/AUCQ, 0→∞. The half-life (t1/2)=0.693/k. The mean residence time (MRT)=1/k.
# Male Sprague-Dawley rats (n=3 per group) weighing 200-250 g and the rounded tips catheters were surgically implanted into the jugular vein of the rats with the benefits of multiple blood draw. […] Blood was collected via the catheters at hour 0, 1, 2, 3, 4, 6, 8, 10, 14, 24, 36, and 48 into heparinized tubes. Blood Q concentrations were measured using an HPLC system (FIG. 21). Pharmacokinetic parameters were determined on each individual set of data by using a non-compartmental model. […] The area under the plasma concentration time curve from time zero to infinity (AUC0→∞) was calculated as AUC0→24 h+Ct/Ke, where Ct was the Q concentration observed at the […] time, and Ke is the apparent elimination rate constant obtained from the terminal slope of the individual plasma concentration-time curves after logarithmic transformation of the plasma concentration values and application of linear regression. The relative bioavailability Fr at infinity was calculated as Fr=AUCQ-NP, 0→∞/AUCQ, 0→∞. The half-life (t1/2)=0.693/k. The mean residence time (MRT)=1/k.
# E coli (ATCC 43895) = assay: Antibacterial activity (absorbance at 595 nm), Example 3; assay type: cell-based; details: 300 μg/mL R or Q; free RQ 240 μg/mL (FIG. 19B)
# Description: (§2) The antibacterial activity of all NPs and their controls against Salmonella enterica subsp. enterica (S. enterica ATCC 13076), Listeria monocytogenes (L. monocytogenes ATCC 15313), E coli (ATCC 43895) and Staphylococcus aureus subsp. aureus (S. aureus ATCC 25923) were investigated.
# [5] = test system: L. monocytogenes ATCC 15313; assay: as above; assay type: cell-based, Listeria monocytogenes; details: 300 μg/mL R or Q; free RQ 240 μg/mL (FIG. 19C)
# Description: as §2
# [6] = In vitro release profile (dialysis method); assay type: physicochemical; details: for release profile: 37° C. (FIG. 17C)
# Experimental: as §1
# Using R-NPs as an example, the NPs were stable at both 4° C. and 22° C. (FIG. 17A). Nanoencapsulation increased R's stability (FIG. 17B). Similarly, Q and RQ were also stable at 4° C. and 22° C. after encapsulation. A dialysis method was used to measure R and Q release profiles from NPs at 37° C. […] The release profiles of NPs were even slower at 4° C. and 22° C.
# [7] = room temperature; cited from earlier work
# [8] = cited from earlier work
# S. enteritidis (13076) = assay: Anti-bacterial assay (OD 600 nm, CFU), Example 2; assay type: cell-based; details: 100 μg/mL, 24 h of incubation
# Experimental: (§3) The concentrations of R and Q in the NPs were characterized by HPLC. Three parallel experiments were performed for each sample, the absorbance of bacteria solution treated with different samples was measured by a microplate reader at a wavelength of 600 nm. S. enteritidis (13076), L. monocytogenes (15313), E. coli (48953) and S. aureus (25923) were used in this study and treated with R-NPs, Q-NPs, RQ-NPs, and CS-coated R-NPs, Q-NPs, and RQ-NPs, respectively. Different concentrations of R-NPs and Q-NPs were investigated. Initially, 50 μg/mL R and R-NPs were used. […] S. enteritidis, L. monocytogenes, E. coli and S. aureus were cultured in broth media under constant shaking at 100 rpm at 37° C. to reach the mid exponential growth phase. The number of bacteria was determined by counting the CFU formed on the agar plate. Bacterial suspensions were diluted to approximately 1×10^4-5 CFU/mL in broth media. The NPs solution (20 μL) was mixed with 180 μL of bacterial suspension in a 96-well plate, and the experiments were performed in triplicates. The plates were incubated at 37° C. under constant shaking at 100 rpm overnight, and the optical density (OD) at 600 nm was measured on a plate reader.
# L. monocytogenes (15313) = assay: Anti-bacterial assay (OD 600 nm, CFU), Example 2; assay type: cell-based; details: 100 μg/mL, 24 h of incubation
# Experimental: as §3
# S. aureus (25923) = assay: Anti-bacterial assay (OD 600 nm, CFU), Example 2; assay type: cell-based; details: 100 μg/mL, 24 h of incubation
# Experimental: as §3
# E. coli (48953) = assay: Anti-bacterial assay (OD 600 nm, CFU), Example 2; assay type: cell-based; details: 100 μg/mL, 24 h of incubation
# Experimental: as §3
# [9] = test system: S. enteritidis (13076), L. monocytogenes (15313), E. coli (48953) and S. aureus (25923); assay: Anti-bacterial assay, Example 2, result stated for the four strains together; assay type: cell-based; design: anti-bacterial effects: dose or concentration left out as unconfirmed
# Experimental: as §3, with “The plates were incubated at 37° C. under constant shaking at 100 rpm overnight, and the optical density (OD) at 600 nm was measured on a plate reader.” left out
# [10] = pH>7; cited from earlier work
smiles,measurement,setting,value
"O=C(O[C@@H]1Cc2c(O)cc(O)cc2O[C@@H]1c1cc(O)c(O)c(O)c1)c1cc(O)c(O)c(O)c1 [EGCG, Epigallocatechin Gallate]",time to complete degradation,[1]; 4° C.,24 h
same,time to complete degradation,[1]; 25° C.,6 h
same,time to complete degradation,[1]; 37° C.,3 h
same,absolute oral bioavailability,[2],about 0.1%
same,peak plasma EGCG concentration,[3],0.15 UM
O=c1c(O)c(-c2ccc(O)c(O)c2)oc2cc(O)cc(O)c12 [Q],half-life,[4]; in vivo,16.7 ± 10.5 h
same,Cmax,[4]; po,964 ± 536 ng/mL
same,Ke,[4]; po,0.07 ± 0.06 h⁻¹
same,MRT,[4]; po,12.1 ± 15.1 h
same,Tmax,[4]; po,2 h
same,AUC,"[4]; po, AUCo→24 h",14600 ± 6270 ng·h/mL
same,AUC,"[4]; po, AUCo→∞",15300 ± 6090 ng·h/mL
same,growth inhibition,E coli (ATCC 43895),inhibited growth
same,growth inhibition,[5],inhibited growth
same,release profile,[6]; dialysis method,burst release
same,release pattern,"[6]; dialysis method, release medium (FIG. 4B)",burst release pattern
same,dissolution of 20 mg in 10 mL of 1×PBS,[7],not able to be dissolved
"Oc1ccc(/C=C/c2cc(O)cc(O)c2)cc1 [R, 3,5,4′-tri-hydroxy-trans-stilbene]",aqueous solubility,[8],< 100 µg/mL
same,growth (CFU formation),S. enteritidis (13076),still not shown
same,growth (CFU formation),L. monocytogenes (15313),still not shown
same,anti-bacterial effects,S. aureus (25923),showed anti-bacterial effects
same,growth (CFU formation),S. aureus (25923),significantly decreased the growth
same,anti-bacterial effects,E. coli (48953),showed anti-bacterial effects
same,growth (CFU formation),E. coli (48953),significantly decreased the growth
same,growth inhibition,E coli (ATCC 43895),inhibited growth
same,growth inhibition,[5],inhibited growth
same,release behavior,[6]; RES NPs study,burst release
same,release profile,[6]; dialysis method,burst release
same,anti-bacterial effects,[9]; 6 h of incubation,significant anti-bacterial effects
same,anti-bacterial effects of 300 μg/mL compared with 200 μg/mL,[9]; FIG. 9,significant enhanced anti-bacterial effects
"COc1cc(/C=C/C(=O)CC(=O)/C=C/c2ccc(O)c(OC)c2)ccc1O [curcumin, Curcumin]",solubility in water,[8],less than 0.1 mg/mL
same,half-life,[10],< 0.167 h
